Measurements as given in patent US11249094B2, “Astrocyte traumatome and neurotrauma biomarkers” (THE REGENTS OF THE UNIVERSITY OF CALIFORNIA, priority 2015, dated 2022).

System: Trauma-released GFAP upper and lower BDPs
Test: GFAP breakdown products in conditioned medium of severely stretched astrocyte cultures with protease inhibitors (immunoblot)
Assay type: cell-based, human
Conditions: 48 hour post-injury, DAKO anti-GFAP polyclonal antibody immunoblot
Protocol: Human astrocytes were isolated from 16-18 week donated fetal neocortical brain specimen, purified and then differentiated on deformable membranes (Wanner, 2012). Cell membrane wounding/compromise, mechanoporation (Barbee, 2005), was determined using Propidium iodide (PI) uptake in living cultures accompanied by nuclear shape assessment (middle picture, stained nuclei, Hoechst stained after fixation, with little pink dots, nucleoli that are PI-stained). Cell death was determined by PI uptake accompanied by condensed nuclei (pyknotic nuclei with compacted chromatin and bright Hoechst and PI stains). Significant percent of cell integrity compromise is shown 30 min post-injury (left graph) while significant cell death was present two days post-injury (bars on the right).
In order to capture the full range of signal intensity, signals from multiple exposures of immunoblots were densitometrically measured (optical densities) and scaled to match a single exposure.
Shown in FIG. 25 are two film exposures of GFAP, upper and lower breakdown products 48 hour post-injury in conditioned medium samples using the DAKO anti-GFAP polyclonal antibody. Severely stretched and unstretched cultures received either no drug, calpain inhibitor PD150606 (100 μM, “Cali”) or pan-caspase inhibitor Z-VAD FMK (8.8 μM, “Casi”). […]

Row | Compound | Trauma-released GFAP upper and lower BDPs in conditioned medium (100 μM) | Trauma-released GFAP upper and lower BDPs in conditioned medium (8.8 μM)
1 | O=C(O)/C(S)=C/c1ccc(I)cc1 [PD150606] | reduced | –
2 | Z-VAD FMK | – | reduced
